Structures are written as SMILES. A value given as a limit tells only on which side of the number the result lay.

The test system of test [1] is A4 (STAT3-null) cancer cell line. Nature of the test: MTT cell viability assay, A4. The class given is cell-based. The source says: (§1) MTT Cell viability assay with both MDA-MB-231 breast (STAT3-dependent) and A4 (STAT3-null) cancer cell lines.
(§2) After observing significant STAT3 dimerisation inhibitory activity in the preliminary FP assay, the target ligand and related fragments were progressed to an MTT cytotoxicity assay to evaluate in a STAT3-dependent tumour cell line (MDA MB 231, breast cancer) and a STAT3 null A4 cell line. It was anticipated that the compounds would show selective toxicity towards the STAT3-dependent MDA MB 231 cell line and would have lost activity in the STAT3 null A4 cell line if the mechanism of action was STAT3-mediated.
(§3) For each cell line, a total of 10,000 cells were seeded for 24 hours before addition of the inhibitors. The cells were grown in normal cell culture conditions at 37° C. under a 5% CO2 humidified atmosphere using an appropriate medium. The cell count was adjusted to 10^5 cells/ml, and 5,000-20,000 cells were added per well depending on the cell line. The cells were then incubated for 24 hours, and 1 μl aliquots of the inhibitors were added to the wells in triplicate. […] Absorbance was quantified by spectrophotometry at A=570 nm (Envision™ Plate Reader, PerkinElmer™, USA). IC50 values were calculated by a dose-response analysis using the Prism GraphPad Prism® software package.
(In general: Tetrazolium dyes change colour on reduction, which living cells bring about.)

Test [2] has as its system STAT3 and STAT3-dependent genes. Put plainly: RT-PCR expression of STAT3 and STAT3-dependent genes in LPS-stimulated MDA-MB-231 cells. It is filed as cell-based, human. Particulars: 25 μM, 8 hours, MDA-MB-231 stimulated with 500 μg/mL LPS. On the procedure: Effect of Compounds of the Invention on Expression of STAT3 and STAT3-Dependent Genes.
To probe the STAT3-specific cytotoxicity of the mature ligands, the mRNA expression profile of STAT3 and some STAT3 target genes (i.e., bcl-2, cyclin D1, and fascin) were compared to the reference gene GAPDH using a RT-PCR assay. Initially, the MDA-MB-231 cells were stimulated with 500 μg/mL LPS for 24 hours at 37° C. Following this, the compounds were added at 25 μM to the cells and incubated for another 8 hours at 37° C. Finally, PCR was used to determine changes in the gene expression profiles between stimulated-untreated and stimulated-treated cells.

In test [3] the target is unphosphorylated STAT3 monomer (uSTAT3) SH2 domain (Homo sapiens, UniProt P40763). Put plainly: Fluorescence polarisation assay for the inhibition of STAT3 dimerisation. It is filed as binding. Particulars: 350 nM uSTAT3, 10 nM FAM-pYLPQTV, 100 μM ligand; average of triplicate. The source says: Fluorescence Polarisation Assay for the Inhibition of STAT3 Dimerisation
Chain of unphosphorylated STAT3 monomer (uSTAT3) SH2 domain (P40763 whole entry, the tested form may be a part): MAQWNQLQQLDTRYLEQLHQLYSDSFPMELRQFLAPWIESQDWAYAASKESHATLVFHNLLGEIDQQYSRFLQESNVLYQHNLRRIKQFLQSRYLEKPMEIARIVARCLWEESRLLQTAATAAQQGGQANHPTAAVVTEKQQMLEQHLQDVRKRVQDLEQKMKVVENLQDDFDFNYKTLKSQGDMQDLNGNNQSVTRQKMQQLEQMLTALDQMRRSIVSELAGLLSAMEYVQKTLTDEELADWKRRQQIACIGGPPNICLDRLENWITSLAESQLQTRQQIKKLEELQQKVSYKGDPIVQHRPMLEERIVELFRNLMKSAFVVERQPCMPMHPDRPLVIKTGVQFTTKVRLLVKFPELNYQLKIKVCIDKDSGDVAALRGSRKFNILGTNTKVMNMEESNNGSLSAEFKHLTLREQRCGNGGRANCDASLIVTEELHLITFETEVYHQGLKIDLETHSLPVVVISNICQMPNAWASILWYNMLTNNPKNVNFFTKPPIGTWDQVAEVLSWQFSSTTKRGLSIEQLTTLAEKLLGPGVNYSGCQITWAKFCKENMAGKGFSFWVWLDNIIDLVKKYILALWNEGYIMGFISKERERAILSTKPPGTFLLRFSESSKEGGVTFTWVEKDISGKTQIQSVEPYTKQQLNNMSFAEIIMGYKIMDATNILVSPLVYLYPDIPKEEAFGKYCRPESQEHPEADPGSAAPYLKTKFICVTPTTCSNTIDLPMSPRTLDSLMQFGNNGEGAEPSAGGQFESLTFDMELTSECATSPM
The compounds were subjected to an in vitro fluorescent polarisation (FP)-based primary PPI binding screen to assess their ability to inhibit STAT3 dimerisation by interacting with the SH2 domain. In this FP assay, the unphosphorylated STAT3 monomer (uSTAT3) and a surrogate peptide FAM-pYLPQTV were used to form a ‘pseudo-dimer’. The assay is based on the concept that the compounds were expected to displace the surrogate peptide from the uSTAT3 resulting in a fluorescent read out.
Specifically, for the FP assay, a black (CORNING™) 96 well plate was thoroughly washed with distilled water and allowed to dry. A 100 nM FAM-pYLPQTV working solution was prepared from 10 μM FAM-pYLPQTV stock solution (in DMSO) using PBS pH 7.4 Buffer. 10 μl FAM-pYLPQTV was added to 350 nM uSTAT3 protein, the final concentration of protein in each well, in 90 μl PBS buffer pH 7.4. The MP value of the surrogate dimer complex was measured using a fluorescent plate reader (Envision™, Perkin Elmer™, USA), which provided the base MP value. The inhibitor solution was then added to the well and the assay plate was placed on a shaker for 5 minutes. The MP value for each well was then measured again. A shift in fluorescent values was observed due to displacement of the fluorescently-labelled surrogate peptide by the inhibitors, and the average inhibition for each inhibitor could be calculated as described below:
Base MP value (X) for each well=MP value of Protein and Probe (350 nm STAT3+10 nM FAM-pYLPQTV)−MP value of free FAM-pYLPQTV
Inhibitor MP value (Y) for each well=MP value of Protein+Probe+Inhibitor (350 nm uSTAT3+10 nM FAM-pYLPQTV+2 μL Inhibitor)−MP value of free FAM-pYLPQTV with 2 μL DMSO
% inhibition by any ligand/peptide=(X−Y)/X*100
For comparison purpose, the % inhibition produced by 100 μM pYLKTKF was considered to be 100%, and the inhibition produced by different ligands was reported as relative to 100 μM pYLKTKF.
% Inhibition produced by 100 μM pYLKTKF=A
% Inhibition produced by 100 μM Ligand=B
Relative inhibition (%)=B/A*100
The experiment was carried out in triplicate, and average values were taken as the measure of PPI inhibition.

For test [4], the system named is MDA-MB-231 breast (STAT3-dependent) cancer cell line. Put plainly: MTT cell viability assay, MDA-MB-231. Particulars: for IC50: MTT, 48 hours exposure (table title); for Selectivity ratio: STAT3-null A4 versus STAT3-dependent MDA-MB-231. It is filed as cell-based, human.
Description: as §1, §2, §3

A word on the IC50: it is the concentration that inhibits the measured activity by half. Broadly, the inhibition is the change of the read-out against control, counted positive when it falls. A low value points to a weak effect. In test [1] (exposure (table title)), `COC(=O)c1ccc(N(C)S(=O)(=O)c2cc(C(=O)NCc3ccc(CN4CCCCC4)cc3)sc2-c2ccc(N3CCN(C)CC3)nc2)cc1` [Compound 3, methyl 4-((N-methyl-2-(6-(4-methylpiperazin-1-yl)pyridin-3-yl)-5-((4-(piperidin-1-ylmethyl)benzyl)carbamoyl)thiophene)-3-sulfonamido)benzoate] gave an IC50 of 65.1 µM. In test [2], the “Bcl-2 mRNA expression (RT-PCR)” value is recorded as “down-regulated”, the “STAT3 mRNA expression (RT-PCR)” value is recorded as “notable downregulation”, the “cyclin D1 mRNA expression (RT-PCR)” value is on record as “down-regulated” and the “fascin mRNA expression (RT-PCR)” value was “down-regulated”. The “house-keeping gene GAPDH mRNA expression (RT-PCR)” value in test [2] is reported as “without showing any effect”. Moreover, the inhibition at 100 µM in test [3] is > 50%.
Regarding `COC(=O)c1ccc(N(C)S(=O)(=O)c2cc(C(=O)NCc3ccc(CN4CCCCC4)cc3)sc2-c2ccc(C(=O)N3CCOCC3)cc2)cc1` [Compound 4, methyl 4-((N-methyl-2-(4-(morpholine-4-carbonyl)phenyl)-5-((4-(piperidin-1-ylmethyl)benzyl)carbamoyl)thiophene)-3-sulfonamido)benzoate], in test [1] (exposure (table title)), the IC50 was determined as 77.4 µM. In test [2], the “Bcl-2 mRNA expression (RT-PCR)” value is reported as “more pronounced”, the “STAT1 mRNA expression (RT-PCR)” value is given as “did not downregulate”, the “STAT3 mRNA expression (RT-PCR)” value was “notable downregulation” and the “cyclin D1 mRNA expression (RT-PCR)” value is “relatively low compared to 3”. In addition, in test [2], the “fascin mRNA expression (RT-PCR)” value is listed as “relatively low compared to 3” and the “house-keeping gene GAPDH mRNA expression (RT-PCR)” value was “without showing any effect”. In addition, the inhibition at 100 µM in test [3] was > 50%.
Consider `COC(=O)c1ccc(N(C)S(=O)(=O)c2cc(C(=O)Nc3ccc(OCCN4CCOCC4)cc3)sc2-c2ccc(N3CCCCC3)cc2)cc1` [Compound 10, methyl 4-((N-methyl-5-((4-(2-morpholinoethoxy)phenyl)carbamoyl)-2-(4-(piperidin-1-yl)phenyl)thiophene)-3-sulfonamido)benzoate], for which the IC50 in test [1] (exposure (table title)) is 67.5 µM. In test [2], the “Bcl-2 mRNA expression (RT-PCR)” value was “very strong down-regulation”, the “STAT1 mRNA expression (RT-PCR)” value is recorded as “did not show any effect”, the “STAT3 mRNA expression (RT-PCR)” value is reported as “significantly downregulated” and the “cyclin D1 mRNA expression (RT-PCR)” value was “marked”. Also, in test [2], the “fascin mRNA expression (RT-PCR)” value is “marked” and the “house-keeping gene GAPDH mRNA expression (RT-PCR)” value is “did not show any effect”. In addition, the inhibition at 100 µM in test [3] was > 50%.
For the compound `COC(=O)c1ccc(N(C)S(=O)(=O)c2cc(C(=O)Nc3ccc(Cc4nc5cc(C)ccc5[nH]4)cc3)sc2Br)cc1` [Compound 34, methyl 4-((2-bromo-N-methyl-5-((4-((5-methyl-1H-benzo[d]imidazol-2-yl)methyl)phenyl)carbamoyl)thiophene)-3-sulfonamido)benzoate], the IC50 is 7.32 µM in test [4] (Homo sapiens, MDA-MB-231, 48 h) and 65.4 µM in test [1] (exposure (table title)). The Selectivity ratio in test [4] is 8.93. Also, 100 µM produced 35.4% inhibition in test [3].
The corresponding values for `COC(=O)c1ccc(N(C)S(=O)(=O)c2cc(C(=O)Nc3ccc4[nH]c(Cc5ccccc5)nc4c3)sc2Br)cc1` [Compound 35, methyl 4-((5-((2-benzyl-1H-benzo[d]imidazol-5-yl)carbamoyl)-2-bromo-N-methylthiophene)-3-sulfonamido)benzoate] are 4.45 µM, 38.7 µM, 8.69 and 33.3%.
As for `COC(=O)c1ccc(N(C)S(=O)(=O)c2cc(C(=O)Nc3ccc4c(ccn4C)c3)sc2Br)cc1` [Compound 36, methyl 4-((2-bromo-N-methyl-5-((1-methyl-1H-indol-5-yl)carbamoyl)thiophene)-3-sulfonamido)benzoate], the IC50 amounted to 7.8 µM in test [4] (Homo sapiens, MDA-MB-231, 48 h) and 45.3 µM in test [1] (exposure (table title)). Further, the Selectivity ratio in test [4] came to 5.80. Besides, the inhibition at 100 µM in test [3] was 29.1%.
The corresponding values for `COC(=O)c1ccc(N(C)S(=O)(=O)c2cc(C(=O)NCc3ccc(CN4CCCC4)cc3)sc2Br)cc1` [Compound 37, methyl 4-((2-bromo-N-methyl-5-((4-(pyrrolidin-1-ylmethyl)benzyl)carbamoyl)thiophene)-3-sulfonamido)benzoate] are 5.64 µM, 55.6 µM, 9.85 and 30.2%.
For `COC(=O)c1ccc(N(C)S(=O)(=O)c2cc(C(=O)Nc3cccc(-c4csc(C)n4)c3)sc2Br)cc1` [Compound 38, methyl 4-((2-bromo-N-methyl-5-((3-(2-methylthiazol-4-yl)phenyl)carbamoyl)thiophene)-3-sulfonamido)benzoate], the IC50 worked out at 11.6 µM in test [4] (Homo sapiens, MDA-MB-231, 48 h) and 54.1 µM in test [1] (exposure (table title)). Further, the Selectivity ratio in test [4] is 4.67. For the same compound, at 100 µM the inhibition in test [3] was 29.2%.
The % Inhibition is the relative decrease from the control value, in per cent. Lower therefore signals a response near the control. For `COC(=O)c1ccc(N(C)S(=O)(=O)c2cc(C(=O)Nc3ccc(N4CCN(C(=O)c5cc6ccccc6o5)CC4)cc3)sc2Br)cc1` [Compound 39, methyl 4-((5-((4-(4-(benzofuran-2-carbonyl)piperazin-1-yl)phenyl)carbamoyl)-2-bromo-N-methylthiophene)-3-sulfonamido)benzoate], the IC50 in test [4] came out at 4.8 µM; in test [1] (48 hours exposure (table title)) it was 43.2 µM. In addition, in test [3], the “% Inhibition” value was determined as 36.44%.
With `C[C@@H]1CC(=O)c2c(ccc3c2C(=O)c2cccc(O)c2C3=O)C1` [STA-21, reference compound], the IC50 in test [4] (Homo sapiens, MDA-MB-231, 48 h) was 18.7 µM; in test [1] (exposure (table title)) it was 65.5 µM. Besides, the Selectivity ratio in test [4] was found to be 3.5. For the same compound, the inhibition at 100 µM in test [3] turned out to be 32.3%.

Source of the values: patent US20200216432A1, “SULFONAMIDE DERIVATIVES AS STAT3 INHIBITORS FOR THE TREATMENT OF PROLIFERATIVE DISEASES” (King's College London, priority 2017, published 2020).
